Some test systems named below: CAKI-1 renal; COLO 205 colon; HCC-2998 colon; KM12 colon; LOX IMVI melanoma; MALME-3M melanoma; OVCAR-5 ovarian; SK-MEL-28 melanoma; SR leukemia; UO-31 renal.
Common to all, as to experiment: inhibition of tumour cell growth, NCI panel, 48 h

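48-hour exposure; five concentrations; linearly interpolated endpoints. GI50 marks 50% less growth. TGI marks complete inhibition of growth.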

Take `NC(=O)/C=C/C(=O)c1c(Cl)cccc1Cl`: the GI50 is 971 nM in the experiment with CAKI-1 renal; 191 nM with COLO 205 colon; 1510 nM with HCC-2998 colon; 1590 nM in the experiment on KM12 colon; 793 nM with LOX IMVI melanoma; 358 nM in the experiment with MALME-3M melanoma. Besides, the GI50 was 1.74 µM in the experiment with OVCAR-5 ovarian, 1210 nM in the experiment with SK-MEL-28 melanoma, 224 nM with SR leukemia and 429 nM in the experiment on UO-31 renal. Moreover, the TGI in the experiment on CAKI-1 renal amounted to 2.5 µM; in the experiment on COLO 205 colon, 0.355 µM; with HCC-2998 colon, 2.88 µM; in the experiment with KM12 colon, 3.02 µM; in the experiment with LOX IMVI melanoma it was 2160 nM; in the experiment on MALME-3M melanoma, 1.71 µM. In addition, the TGI in the experiment on OVCAR-5 ovarian stood at 3.41 µM; with SK-MEL-28 melanoma it was 2.52 µM; in the experiment with SR leukemia, 1.37 µM; with UO-31 renal it was 0.859 µM.

On to `Cc1cc(Cl)cc(OCCn2cc(F)cn2)c1-c1nc(N)nc2c1CN(C(=O)NCC(C)(F)F)C2`, for which the GI50 with CAKI-1 renal was 755 nM; in the experiment on COLO 205 colon it was 39.5 nM; in the experiment on HCC-2998 colon, 315 nM; in the experiment with KM12 colon it was 50.8 nM; in the experiment on LOX IMVI melanoma it was 85.2 nM; with MALME-3M melanoma, 68.4 nM. Further, the GI50 in the experiment with OVCAR-5 ovarian is 2.66 µM; with SK-MEL-28 melanoma, 70.9 nM; in the experiment on SR leukemia, 49.5 nM; with UO-31 renal, 682 nM. Also, the TGI was greater than 100 µM in the experiment with CAKI-1 renal; 1.19 µM with COLO 205 colon; greater than 100 µM in the experiment on HCC-2998 colon; 0.459 µM with KM12 colon; 552 nM in the experiment on LOX IMVI melanoma; greater than 100 µM in the experiment on MALME-3M melanoma. The TGI with OVCAR-5 ovarian, in the experiment on SK-MEL-28 melanoma, with SR leukemia and in the experiment on UO-31 renal was greater than 100 µM throughout.

As to `O=C(Nc1ccc(Nc2ccncc2)cc1)c1ccc([N+](=O)[O-])cc1`, the GI50 was 6020 nM in the experiment on CAKI-1 renal; 1900 nM with COLO 205 colon; 2770 nM with HCC-2998 colon; 4230 nM in the experiment on KM12 colon; 3720 nM with LOX IMVI melanoma; 4890 nM in the experiment with MALME-3M melanoma. Also, the GI50 is 9.82 µM in the experiment with OVCAR-5 ovarian, 5000 nM in the experiment with SK-MEL-28 melanoma, 2320 nM with SR leukemia and 3460 nM in the experiment on UO-31 renal. Besides, the TGI is 19.3 µM with CAKI-1 renal; 3.73 µM with COLO 205 colon; 12.3 µM in the experiment on HCC-2998 colon; 17.3 µM in the experiment with KM12 colon; 14700 nM in the experiment with LOX IMVI melanoma; 17.3 µM in the experiment with MALME-3M melanoma. For the same compound, the TGI was greater than 44.7 µM with OVCAR-5 ovarian, 16.7 µM with SK-MEL-28 melanoma, greater than 20.4 µM with SR leukemia and 10.4 µM in the experiment with UO-31 renal.

As for `CCN(CC)CCC(CNc1ccnc2cc(Cl)ccc12)c1ccc(Cl)cc1` (stereo not given), the GI50 in the experiment with CAKI-1 renal is 496 nM; with COLO 205 colon it was 1130 nM; with HCC-2998 colon, 642 nM; in the experiment with KM12 colon, 1790 nM; in the experiment with LOX IMVI melanoma, 1020 nM; in the experiment on MALME-3M melanoma, 1400 nM. The GI50 is 3.01 µM with OVCAR-5 ovarian, 763 nM with SK-MEL-28 melanoma, 311 nM in the experiment with SR leukemia and 642 nM in the experiment with UO-31 renal. Further, the TGI in the experiment with CAKI-1 renal came to 2.36 µM; in the experiment on COLO 205 colon it was 2.5 µM; in the experiment with HCC-2998 colon it was 2.03 µM; in the experiment on KM12 colon, 4.44 µM; with LOX IMVI melanoma it was 2380 nM; with MALME-3M melanoma, 3.16 µM. Moreover, the TGI with OVCAR-5 ovarian amounted to 11.2 µM; in the experiment with SK-MEL-28 melanoma it was 2.06 µM; in the experiment with SR leukemia, 1.48 µM; in the experiment on UO-31 renal it was 2.07 µM.

Regarding `S=C(Nc1ccc(Cl)cc1)Nc1ccc(-c2nc3ccccc3s2)cc1`, the GI50 with CAKI-1 renal was 10800 nM; in the experiment with COLO 205 colon, 18700 nM; with HCC-2998 colon, 14700 nM; in the experiment with KM12 colon, 15000 nM; with LOX IMVI melanoma it was 24300 nM; with MALME-3M melanoma, 15600 nM. In addition, the GI50 in the experiment on OVCAR-5 ovarian was 20.8 µM; with SK-MEL-28 melanoma, 19100 nM; with SR leukemia, 4470 nM; with UO-31 renal, 11800 nM. The TGI in the experiment with CAKI-1 renal was 28 µM; in the experiment on COLO 205 colon, 53.7 µM; in the experiment with HCC-2998 colon, 27.8 µM; in the experiment on KM12 colon, 49.1 µM; in the experiment on LOX IMVI melanoma it was greater than 100000 nM; in the experiment with MALME-3M melanoma it was 46.4 µM. The TGI with OVCAR-5 ovarian was found to be 44 µM; with SK-MEL-28 melanoma, 44.2 µM; in the experiment on SR leukemia, 27.4 µM; in the experiment on UO-31 renal, 25.2 µM.

Take `COc1cc(-c2oc(=O)ccc2C#Cc2ccccn2)cc(OC)c1OC`: the GI50 in the experiment on CAKI-1 renal is 563 nM; with COLO 205 colon, 3720 nM; with HCC-2998 colon it was 236 nM; in the experiment on KM12 colon, 884 nM; in the experiment on LOX IMVI melanoma, 4380 nM; in the experiment with MALME-3M melanoma, 14900 nM. In addition, the GI50 with OVCAR-5 ovarian was 10.5 µM; with SK-MEL-28 melanoma it was 3340 nM; in the experiment with SR leukemia, 257 nM; with UO-31 renal it was 3220 nM. Besides, the TGI is 3.73 µM in the experiment with CAKI-1 renal; greater than 30.9 µM with COLO 205 colon; 4.6 µM in the experiment on HCC-2998 colon; greater than 100 µM with KM12 colon; greater than 100000 nM in the experiment on LOX IMVI melanoma; greater than 100 µM with MALME-3M melanoma. Also, the TGI in the experiment on OVCAR-5 ovarian was greater than 100 µM; in the experiment on SK-MEL-28 melanoma it was greater than 100 µM; in the experiment with SR leukemia, greater than 39.9 µM; in the experiment with UO-31 renal it was greater than 100 µM.

`O=C(Nc1ccc(Br)cc1F)c1cc(F)ccc1O`: the GI50 is 314 nM in the experiment with CAKI-1 renal; 2460 nM in the experiment on COLO 205 colon; 2370 nM in the experiment on HCC-2998 colon; 2040 nM with KM12 colon; 405 nM in the experiment on LOX IMVI melanoma; 335 nM in the experiment with MALME-3M melanoma. In addition, the GI50 is 3.85 µM with OVCAR-5 ovarian, 377 nM in the experiment on SK-MEL-28 melanoma, 476 nM in the experiment on SR leukemia and 210 nM with UO-31 renal. The TGI amounted to 2.62 µM in the experiment with CAKI-1 renal; 6.56 µM with COLO 205 colon; 8.45 µM with HCC-2998 colon; 5.45 µM in the experiment with KM12 colon; 2910 nM in the experiment with LOX IMVI melanoma; 1.53 µM in the experiment with MALME-3M melanoma. In addition, the TGI in the experiment with OVCAR-5 ovarian is greater than 100 µM; in the experiment on SK-MEL-28 melanoma, 1.84 µM; in the experiment with SR leukemia, greater than 100 µM; with UO-31 renal, 1.27 µM.

These data come from PubChem BioAssay (NCI).
